The results in this text go back to US8440675B2, “Potentiator of radiation therapy” (Taiho Pharmaceutical Co., Ltd., priority 2006, dated 2013).

Holding throughout (assay type): in vivo
The subject of series [1] is human lung cancer strain (LC-11). The experiment in a line: Test Example 2: anti-tumor effect of TPI or TUPI with or without X-ray irradiation in LC-11-transplanted nude mice. Conditions: for RTV Day 15 / RTV Day 22 / RTV Day 29: mean ± S.D. As to the method: TPI was suspended in a 0.5% (w/v) HPMC solution to adjust the concentration to 1.5 or 5.0 mg/mL, and the suspension was stirred at room temperature for about 10 minutes by means of a stirrer. Subsequently, the suspension was ultrasonicated under ice cooling for about five minutes, to thereby prepare a TPI drug liquid with a dose of 15 mg/kg/day or 50 mg/kg/day.
5-Chloro-6-aminouracil (hereinafter abbreviated as TUPI) was suspended in a 0.5% (w/v) HPMC solution to adjust the concentration to 5.0 mg/mL, and the suspension was stirred at room temperature for about 10 minutes by means of a stirrer. Subsequently, the suspension was ultrasonicated under ice cooling for about five minutes, to thereby prepare a TUPI drug liquid with a dose of 50 mg/kg/day.
By means of a radiation apparatus (model: MBR-1505R2, product of Hitachi Medical Corp.), mice were irradiated with X-rays under such irradiation conditions that the unit dose to one mouse was adjusted to 2 Gy or 5 Gy, by controlling the distance from the radiation source to the mouse. Specifically, radiation was applied locally to the right femoral region of each mouse where cells of a human tumor strain had been transplanted. In order to avoid systemic irradiation, the mouse was placed in a lead box so that only the right leg was exposed to the radiation.
The human lung cancer strain (LC-11) subcutaneously transplanted into the back of a BALB/cA-nu mouse and grown beforehand were removed, cut into small pieces (about 2×2 mm^2) with scissors in physiological saline, and subcutaneously transplanted into the right femoral region of 5- to 6-week-old mice of the same strain with a transplantation needle. The thus-treated mice were bred for adaptation for at least 1 to 2 weeks and divided into a control group, radiation-only groups, drug-only groups, and radiation-drug combination groups, each group consisting of 6 mice, such that the average tumor volume and the standard deviation (S.D.) were equalized to a maximum extent between groups. Then, administration of the drug and irradiation were started. To each of the mice of the groups subjected to drug administration, the aforementioned TPI liquid or TUPI liquid was perorally administered, by means of an oral administration probe, once a day at a dose of 0.1 mL/10 g-body weight for 14 continuous days. The mice of the groups subjected to radiation were irradiated with X-rays at a dose of 2 Gy or 5 Gy through the aforementioned method within about one hour after administration of the TPI liquid or the TUPI liquid on the test day 1 and day 8. To the cancer-bearing mice of the control group (non-radiation/non-drug administration group) and those of the radiation-only groups, only 0.5% HPMC liquid was perorally administered through the same method for 14 continuous days.
The tumor volume of each mouse of the above groups, which was calculated by the equation 1 in Test Example 1, was determined before the start of the treatment test, and on day 3, day 5, day 8 (1 week after), day 11, day 15 (after termination of administration, 2 weeks after), day 18, day […], day 25, and day 29 (4 weeks after). A relative tumor volume (RTV) to the tumor volume at the start of the test was obtained for each mouse. […] Then, the average tumor growth inhibition rate (IR: %) with respect to the control group was calculated on day 15, day 22, and day 29 (after termination of the treatment period) in a manner similar to that of Test Example 1.

Series [2] has the same test system. Briefly: Test Example 4: anti-tumor effect of TAS-102 or FTD with or without X-ray irradiation in LC-11-transplanted nude mice.
For series [3], the system named is mouse. The experiment in a line: No observed adverse effect level on peroral administration to a mouse for 14 days. The following applies: perorally administered to a mouse for 14 days; TAS-102 dose as reduced to FTD. As to the method: α,α,α-Trifluorothymidine (hereinafter abbreviated as FTD) and TPI were suspended in a 0.5% (w/v) HPMC solution to adjust their concentrations to 5.0 mg/mL and 2.65 mg/mL, respectively, and the suspension was stirred at room temperature for about 10 minutes. Subsequently, the suspension was ultrasonicated under ice cooling, to thereby prepare a drug liquid with a dose of 50 mg/kg/day (as reduced to FTD). Hereinafter, the drug liquid is referred to as TAS-102. The dose of the TAS-102 liquid is a “no observed adverse effect level” when the liquid is perorally administered to a mouse for 14 days.
FTD was suspended in a 0.5% (w/v) HPMC solution to adjust their concentrations to 5.0 mg/mL, and the suspension was stirred at room temperature for about 10 minutes. Subsequently, the suspension was ultrasonicated under ice cooling, to thereby prepare a FTD drug liquid with a dose of 50 mg/kg/day. The dose of FTD is a “no observed adverse effect level” when the liquid is perorally administered to a mouse for 14 days.

Setting [4] is: 50 mg/kg p.o. once a day for 14 days + X-ray 2 Gy on day 1 and day 8.
Setting [5] is: 50 mg/kg p.o. once a day for 14 days, no X-ray.
The mark [6] stands for this setting: 50 mg/kg (as reduced to FTD) p.o. once a day for 14 days + X-ray 2 Gy on day 1 and day 8.
The mark [7] stands for this setting: 50 mg/kg (as reduced to FTD) p.o. once a day for 14 days, no X-ray.

Values joined by “and” are separate entries in the source; they are usually repeats but may differ in a detail not shown here. Identical values can stand only once.

Consider `Nc1[nH]c(=O)[nH]c(=O)c1Cl` [TUPI, 5-Chloro-6-aminouracil, reference compound], for which, in series [1] (setting [4]), the “IR (%) Day 15” value was 36.6%, the “IR (%) Day 22” value was 41.2%, the “IR (%) Day 29” value stood at 50.2% and the “RTV Day 15” value was determined as 3.2 ± 0.8. Moreover, in series [1] (setting [4]), the “RTV Day 22” value is reported as 5.3 ± 1.7 and the “RTV Day 29” value amounted to 8.8 ± 2.5. Moreover, in series [1] (setting [5]), the “IR (%) Day 15” value is on record as 12.7%, the “IR (%) Day 22” value is 17.5%, the “IR (%) Day 29” value stood at 21.4% and the “RTV Day 15” value is reported as 4.4 ± 1.8. Moreover, in series [1] (setting [5]), the “RTV Day 22” value is on record as 7.4 ± 3.3 and the “RTV Day 29” value turned out to be 14.0 ± 6.3. In addition, in series [1] (50 mg/kg, no X-ray), the “anti-tumor effect of the drug singly administered (in words)” value is “virtually no anti-tumor effect”. Besides, the “potentiation of anti-tumor effect of X-ray radiation (in words)” value in series [1] (drug + X-ray 2 Gy) is on record as “no potentiation of anti-tumor effect was observed”.
Take `O=c1[nH]c(=O)n([C@H]2C[C@H](O)[C@@H](CO)O2)cc1C(F)(F)F` [FTD, α,α,α-Trifluorothymidine]: in series [2] (setting [6]), the “IR (%) Day 15” value turned out to be 35.8%, the “IR (%) Day 22” value was 48.6% and the “IR (%) Day 29” value is 58.5%. In addition, in series [2] (setting [7]), the “IR (%) Day 15” value was 52% and 51.8%; the “IR (%) Day 22” value was 57% and 57.2%; the “IR (%) Day 29” value came to 59%. The “potentiation of anti-tumor effect of X-ray radiation (in words)” value in series [2] (50 mg/kg + X-ray 2 Gy) is given as “the anti-tumor effect did not increase”. Also, the “no observed adverse effect level” value in series [3] was found to be 50 mg/kg/day.
